# From patent publication US10413532B2, “Pharmaceutical compositions containing a PDE4 inhibitor and a PI3 delta or dual PI3 delta-gamma kinase inhibitor” (Rhizen Pharmaceuticals SA, priority 2012, dated 2019)
# pIC50: −log10 of the molar value.
# Experiments:
# [1] = tested on: elastase; assay: fMLP induced elastase release from human neutrophils; type: cell-based; details: Neutrophil, compound alone
# Description: Blood was procured from a local blood bank. Neutrophils were obtained using the dextran sedimentation method. Cells were plated at 100,000 cells per well in a 96-well plate, treated with fMLP (1 μM) and N-Succinyl-Ala-Ala-Ala-p-nitroanalide (1 μM) (Sigma) and incubated for 2 h. Intensity of digested substrate after incubation was determined by measuring the absorbance at 405 nm on a Fluostar Omega (BMG Labtech, NC, USA).
# [2] = tested on: macrophage and neutrophil infiltration; assay: Acute cigarette smoke induced cell infiltration in male Balb/c mice; type: in vivo; details: acute CS, mouse
# Description: Animals were acclimatized for seven days prior to the start of the experiment. Animals were randomly distributed to various groups based on their body weights. On day 1, mice were administered by test compound or vehicle by the oral route and after 30 mins test compound administration animals were placed in a whole body exposure box. The mice were exposed to the mainstream smoke of 6 cigarettes from day 1 to day 4. Exposure to the smoke of each cigarette lasted for 10 min (cigarettes were completely burned in the first two minutes and followed by an air flow with animal ventilator) followed by exposure for the next 20 min with fresh room air. After every second cigarette an additional break of 20 min with exposure to fresh room air was conducted. Control animals were exposed to the room air chamber. From day 1 to day 4 animals were administered test compound by the oral route. On day 5, 24 hours after the last cigarette smoke (CS) exposure. animals were exsanguinated under anaesthesia, and the trachea was cannulated and the lungs were lavaged with 0.5 ml aliquots of heparinised PBS (1 unit/ml) four times through a tracheal cannula (total volume 2 ml). Bronchioalveolar (BAL) collected was stored at 2-8° C. until assayed for total cell and differential leukocyte count. BAL fluid was centrifuged (500×g for 10 min) and the resulting cell pellet was resuspended in 0.5 ml of heparinised saline. The total number of white blood cells was determined in BAL fluid and blood using a blood cell counter and adjusted to 1×10^6 cell/ml. Differential cell count was calculated manually. Forty microliters of the cell suspension was centrifuged using cytospin 3 to prepare a cell smear. The cell smear was stained with a blood staining solution for differentiation and microscopically observed by identifying each cell according to its morphological characteristics. The number of each cell type among 300 white blood cells in the cell smear were determined and expressed as a percentage, and the number of neutrophils and macrophages in each BAL fluid were calculated.
# The procedure for acute cigarette smoke induced cell infiltration in male Balb/c mice described in Example 1 was performed with Compound A1 and roflumilast
# [3] = tested on: macrophage and neutrophil infiltration; assay: Chronic cigarette smoke induced cell infiltration in male Balb/c mice; type: in vivo; details: alone at 1 mg/kg oral; chronic CS, mouse
# Description: Animals were acclimatized for seven days prior to the start of the experiment. Animals were randomly distributed to various groups based on their body weights. Mice were exposed to the mainstream smoke of 4 cigarettes from day 1 to day 11. Exposure to the smoke of each cigarette lasted for […] (each cigarette was completely burned in the first two minutes, followed by an air flow with animal ventilator) and were exposed for the next 20 min with fresh room air. After every second cigarette an additional break of 20 min with exposure to fresh room air was conducted. Control animals were exposed to the room air chamber. Test compound was administered by the oral route from day 6 to day 11 before 30 mins whole body smoke exposure. On day 12, 24 hours after the last cigarette smoke (CS) exposure animals were exsanguinated under anaesthesia, and the trachea was cannulated and the lungs were lavaged with 0.5 ml aliquots of heparinised PBS (1 unit/nil) four times through tracheal cannula (total volume 2 ml). Bronchioalveolar (BAL) collected was stored at 2-8° C. until assayed for total cell and differential leukocyte count. BAL fluid was centrifuged (500×g for 10 min) and the resulting cell pellet was resuspended in 0.5 ml of heparinised saline. The total number of white blood cells was determined in BAL fluid and blood using a blood cell counter and adjusted to 1×10^6 cell/ml. Differential cell count was calculated manually Forty microliters of the cell suspension was centrifuged using cytospin 3 to prepare a cell smear. The cell smear was stained with a blood staining solution for differentiation and microscopically observed by identifying each cell according to its morphological characteristics. The number of each cell type among 300 white blood cells in the cell smear was determined and expressed as a percentage, and the number of neutrophils and macrophages in each BAL fluid were calculated.
# [4] = tested on: TNFα; assay: LPS induced TNFα in PBMC; type: cell-based; details: 10 nM alone, LPS
# Description: PBMC (peripheral blood mononuclear cells) from whole blood were isolated by density gradient using Histopaque and incubated with the desired concentration of inhibitor for 15 minutes. LPS (1 μg/ml) was added and then incubated for 24 hours. The supernatant was collected and TNFα estimated using an eBioscience TNFα ELISA kit.
# PBMC from whole blood were isolated by density gradient using Histopaque and incubated with the desired concentration of inhibitor for 15 minutes. LPS (1 μg/m1) was added and then incubated for 24 hours. The supernatant was collected and TNFα estimated using an eBioscience TNFα ELISA kit.
# [5] = tested on: pAkt (S473); assay: phospho-Akt (S473) in differentiated U937 cells stimulated with cigarette smoke extract (SDS-PAGE); type: cell-based; details: Homo sapiens, U-937; compound alone; differentiated U937, CSE; read-out: IC50 of inhibition of Akt phosphorylation
# Description: U-937 monocytes were differentiated into macrophages by incubation with 50 ng/ml PMA for 48 h. Cells were trypsinized and plated at a density of 100,000 per well and stimulated with CSE for 2 h in starvation media. Lysates were made using RIPA buffer and run by SDS-PAGE, transferred to PVDF membrane and probed with phospho-Akt (S473) antibody (Cell signaling, USA) followed by anti-rabbit IgG (Cell signaling, USA). Band intensity was calculated using ImageJ 1.42 (NIH, USA).
# [6] = tested on: A549 cells; assay: Cell cycle analysis / CSE induced apoptosis in A549 cells; type: cell-based; details: compound alone, CSE 72 h
# Description: A549 cells were plated in 6-well plates at a density of 100,000 cells per well and stimulated with CSE for 72 h. After incubation, cells were fixed in 70% ethanol and stored at 4° C. till analysis. Cells were stained with Guava Cell Cycle reagent according to the manufacturer's instructions. Cell cycle data were obtained using the Guava Personal Cell Analysis System (Millipore, USA).
# [7] = tested on: MMP-9; assay: MMP-9 release from PMA-induced THP-1 cells (gelatin zymography); type: cell-based, human; details: Homo sapiens; compound alone; THP-1 cells, PMA; read-out: IC50 for the reduction of MMP-9
# Description: Gelatinase activity of MMP-9 was determined by zymography. Proteins in supernatant (after incubation of THP-1 cells with 50 ng PMA for 24 h) were separated on gels containing 0.1% gelatin (Sigma, USA). Gels were re-natured by incubation in 2.5% Triton X-100 for 30 min, incubated overnight in substrate buffer (50 mMTris-HCl, pH 7.5) containing 10 mM CaCl2 and 0.05% ZnCl2 at 37° C. and stained with Coomassie brilliant blue (0.5%). […] Molecular weight markers (Fermentas, Lithuania) were run with each gel. Band intensity was calculated using ImageJ 1.42 (NIH, USA).
# [8] = 3 mg/kg oral, dose-response study
# [9] = combination study, alone at 3.5 mg/kg
smiles,measurement,setting,value
"O=C(Nc1c(Cl)cncc1Cl)c1ccc(OC(F)F)c(OCC2CC2)c1 [Compound A, roflumilast, reference compound]",Emax,"[1]; Homo sapiens, read-out: Emax of inhibition of elastase release",43%
same,pIC50,"[1]; human neutrophils, read-out: IC50 of inhibition of fMLP induced elastase release",7.99
same,percent inhibition of macrophage infiltration,[2]; 1 mg/kg oral,22.2%
same,percent inhibition of neutrophil infiltration,[2]; 1 mg/kg oral,70.85%
same,percent inhibition of macrophage infiltration,[2]; [8],51.00%
same,percent inhibition of neutrophil infiltration,[2]; [8],73.69%
same,percent inhibition of macrophage infiltration,[2]; 10 mg/kg oral,69.11%
same,percent inhibition of neutrophil infiltration,[2]; 10 mg/kg oral,83.01%
same,ED50,"[2]; Macrophage, oral, read-out: 50% inhibition (ED50) dose, macrophage infiltration",3.5 mg/kg
same,inhibition of macrophage infiltration,[2]; [9],26.55%
same,inhibition of neutrophil infiltration,[2]; [9],44.42%
same,inhibition of macrophage infiltration,[3],6.30%
same,inhibition of neutrophil infiltration,[3],34.60%
same,decrease of TNFα secretion,[4],25%
same,pIC50,[5],5.71
same,inhibition of apoptosis,[6],dose-dependent inhibition of apoptosis
same,pIC50,[7],6.24
